“Also recorded” adds a separate entry of the source.
What was measured:
Assay type in all cases: biochemical
[1] = system: PP2B; assay: Effect on PP2B
[2] = system: protein phosphatase type 2A (PP2A); assay: Protein phosphatase inhibition assay, purified catalytic subunit, [32P]-phosphohistone or phosphorylase a substrate
Experimental: (§1) FIG. 4: Effect of fostriecin on the activity of protein phosphatase type 1 (PP1) and protein phosphatase type 2A (PP2A). The activity of the purified catalytic subunits of PP1 (Δ,s) or PP2A (O,1) was assayed in the presence of the indicated amount of fostriecin. The inhibition assays employed freshly prepared [^32 P]-phosphohistone (open symbols) or [^32 P]phosphorylase A (filled symbols) as substrate and highly purified catalytic subunits of PP1 or PP2A. Assays were conducted in a total volume of 80 μl, and the indicated amount of fostriecin was added to the assay 10 minutes prior to initiation of the reaction by the addition of substrate. Each point represents the mean ± SE (n>6).
(§2) Determination of protein phosphatase activity: Protein phosphatase activity against phosphohistone was determined by the quantification of liberated [^32 P] from phosphohistone according to previously established methods (see Honkanen et al., J. Biol. Chem. 265:19401-04 (1990); Honkanen et al., Mol. Pharmacol. 40:577-83 (1991); and Critz and Honkanen, Neuroprotocols 6:78-83 (1995)). Assays (80 μl final volume) were conducted in 50 mM Tris-buffer (pH 7.4) containing 0.5 mM DTT, 4 mM EDTA, and phosphoprotein (2 μM PO4). The assay was initiated by the addition of substrate (30 μl) to a 1.5 ml microfuge tube containing 50 μl of dilute homogenate. Assays were conducted at 30° C. for 10 minutes and were stopped by the addition of 100 μl of 1N H2 SO4 containing 1 mM K2 HPO4. [^32 P]Phosphate liberated by the enzyme was then extracted as a phosphomolybdate complex and measured according to the methods of Killilea et al., Arch. Biochem. Biophys. 191:638-46 (1978)). Briefly, free phosphate was extracted by adding 20 μl of ammonium molybdate (7.5% w/v in 1.4 N H2 SO4) and 250 μl of isobutanol:benzine (1:1, v/v) to each tube. The tubes were mixed vigorously for approximately 10 seconds followed by centrifugation at 14,000×g for 2 minutes. Aliquots of the upper phase (100 μl) were removed for counting, and radioactivity was quantified with a scintillation counter.
(§3) For inhibition studies, the indicated amount of fostriecin or okadaic acid was added to the enzyme mixture 10 minutes before the reaction was initiated with the addition of substrate. Controls received solvent alone, and in all experiments the amount of enzyme was diluted to ensure that the samples were below the titration endpoint. The titration endpoint is defined as the concentration of enzyme after which further dilution no longer affects the IC50 of the toxin, and represents a point where the concentration of enzyme used in the assay no longer approaches that of the toxin. This ensures that IC50 represents the potency of the inhibitor alone and is not representative of a combination of potency of the toxin and titration artifacts of the assay system. Preliminary assays were also performed to ensure the dephosphorylation reaction was linear with respect to enzyme concentration and time.
(§4) The catalytic subunit of PP2A was purified to apparent homogeneity according to established methods as described by Pallas et al., Cell 60:167-176 (1990) using G-75 Sephadex in the place of Ultrogel-AcA44 as previously reported in Brautigan et al., J. Biol. Chem. 260:4295-02 and Honkanen et al., Mol. Pharmacol 40:577-83 (1991). PP1 and PP2A both are now also available from several commercial sources.

[3] = system: protein phosphatase type 1 (PP1); assay: as above
Experimental: as §1, §2, §3, §4

[4] = system: divalent cation-independent serine/threonine protein phosphatase activity; assay: Divalent cation-independent phosphatase activity in dilute whole cell homogenate of rabbit ventricle; settings: crude whole cell homogenate, [32P]-phosphohistone
Experimental: FIG. 5: Effect of fostriecin on the divalent cation-independent phosphatase activity contained in a dilute, whole cell homogenate of rabbit ventricle. Dilute homogenates of rabbit ventricle biopsies were assayed in the presence of the indicated amount of fostriecin. […] Assays were conducted in a total volume of 80 μl, and the indicated amount of fostriecin was added to the assay 10 minutes prior to initiation of the reaction by the addition of substrate. Each point represents the mean ± SE (n>6).
Determination of protein phosphatase activity: Protein phosphatase activity against phosphohistone was determined by the quantification of liberated [^32 P] from phosphohistone according to previously established methods (see Honkanen et al., J. Biol. Chem. 265:19401-04 (1990); Honkanen et al., Mol. Pharmacol. 40:577-83 (1991); and Critz and Honkanen, Neuroprotocols 6:78-83 (1995)). Assays (80 μl final volume) were conducted in 50 mM Tris-buffer (pH 7.4) containing 0.5 mM DTT, 4 mM EDTA, and phosphoprotein (2 μM PO4). […] [^32 P]Phosphate liberated by the enzyme was then extracted as a phosphomolybdate complex and measured according to the methods of Killilea et al., Arch. […] Aliquots of the upper phase (100 μl) were removed for counting, and radioactivity was quantified with a scintillation counter. […]

[5] = system: alkaline protein phosphatase; assay: Effect on alkaline protein phosphatase
[6] = system: acid phosphatase; assay: Effect on acid phosphatase
[7] = phosphohistone and phosphorylase-a substrates

Question: Which “effect on PP2B” value [1] does the source give for CC(O)(/C=C/C1CC=CC(=O)O1)C(CC(O)\C=C/C=C\C=C\CO)OP(=O)(O)O (stereo not drawn) [fostriecin] here?
Answer: no effect

Question: And the “inhibition of PP2A at the protective concentration” value ([2]; 1-10 μM fostriecin)?
Answer: inhibits the activity of PP2A; also recorded: inhibits PP2A completely

Question: And the “inhibition of PP2A catalytic subunit” value [2, 7]?
Answer: inhibited by fostriecin in a dose-dependent manner

Question: What about the “concentration inhibiting PP2A relative to PP1” value ([2]; purified catalytic subunits) of the same compound?
Answer: at a lower concentration than PP1

Question: What about the “effect on PP1 at the protective concentration” value ([3]; 1-10 μM fostriecin) of the same compound?
Answer: no direct effect; also recorded: minor effect

Question: And the “inhibition of PP1 catalytic subunit” value [3, 7]?
Answer: inhibited by fostriecin in a dose-dependent manner

Question: What about the “inhibition of phosphatase activity in rabbit heart ventricle homogenate” value [4] of the same compound?
Answer: inhibits

Question: And the “effect on alkaline protein phosphatase” value [5]?
Answer: no effect

Question: And the “effect on acid phosphatase” value [6]?
Answer: no effect
